In ChEMBL document CHEMBL3526037, “Evaluation of the relationship between sex, polymorphisms in CYP2C8 and CYP2C9, and pharmacokinetics of angiotensin receptor blockers” (Drug Metab Dispos, 2013):
One block for each compound: values may come before it.

Assays:
Format in all cases: ADME, organism-based
[1] = Half life in human plasma expressing CYP2C8*3 allele carrier polymorphism at 25 to 32 mg by LC/MS/MS analysis
[2] = Cmax in human plasma expressing CYP2C8*3 allele carrier polymorphism at 25 to 32 mg by LC/MS/MS analysis
[3] = Clearance in human plasma expressing CYP2C8*1/*1 polymorphism at 25 to 32 mg by LC/MS/MS analysis
[4] = Clearance in human plasma expressing CYP2C8*4 allele carrier polymorphism at 25 to 32 mg by LC/MS/MS analysis
[5] = Cmax in human plasma expressing CYP2C9*2 allele carrier polymorphism at 25 to 32 mg by LC/MS/MS analysis
[6] = Half life in human plasma expressing CYP2C8*2 allele carrier polymorphism at 25 to 32 mg by LC/MS/MS analysis
[7] = Tmax in human plasma expressing CYP2C9*2 allele carrier polymorphism at 25 to 32 mg by LC/MS/MS analysis
[8] = Cmax in women plasma at 25 to 32 mg by LC/MS/MS analysis; conditions: female, human
[9] = Cmax in human plasma expressing CYP2C8*1/*1 polymorphism at 25 to 32 mg by LC/MS/MS analysis
[10] = Tmax in human plasma expressing CYP2C8*2 allele carrier polymorphism at 25 to 32 mg by LC/MS/MS analysis
[11] = Tmax in human plasma expressing CYP2C9*3 allele carrier polymorphism at 25 to 32 mg by LC/MS/MS analysis
[12] = AUC in men plasma at 25 to 32 mg by LC/MS/MS analysis; conditions: male, human
[13] = Half life in human plasma expressing CYP2C9*2 allele carrier polymorphism at 25 to 32 mg by LC/MS/MS analysis
[14] = Tmax in human plasma expressing CYP2C8*3 allele carrier polymorphism at 25 to 32 mg by LC/MS/MS analysis
[15] = AUC in human plasma expressing CYP2C8*2 allele carrier polymorphism at 25 to 32 mg by LC/MS/MS analysis
[16] = Clearance in men plasma at 25 to 32 mg by LC/MS/MS analysis; conditions: male, human
[17] = Clearance in women plasma at 25 to 32 mg by LC/MS/MS analysis; conditions: female, human
[18] = Clearance in human plasma expressing CYP2C8*3 allele carrier polymorphism at 25 to 32 mg by LC/MS/MS analysis
[19] = Half life in human plasma expressing CYP2C9*1/*1 polymorphism at 25 to 32 mg by LC/MS/MS analysis
[20] = Half life in human plasma expressing CYP2C8*4 allele carrier polymorphism at 25 to 32 mg by LC/MS/MS analysis
[21] = Half life in human plasma expressing CYP2C8*1/*1 polymorphism at 25 to 32 mg by LC/MS/MS analysis
[22] = Cmax in human plasma expressing CYP2C9*1/*1 polymorphism at 25 to 32 mg by LC/MS/MS analysis
[23] = Cmax in human plasma expressing CYP2C8*4 allele carrier polymorphism at 25 to 32 mg by LC/MS/MS analysis
[24] = Clearance in human plasma expressing CYP2C9*2 allele carrier polymorphism at 25 to 32 mg by LC/MS/MS analysis
[25] = Clearance in human plasma expressing CYP2C9*3 allele carrier polymorphism at 25 to 32 mg by LC/MS/MS analysis
[26] = AUC in human plasma expressing CYP2C9*1/*1 polymorphism at 25 to 32 mg by LC/MS/MS analysis
[27] = AUC in human plasma expressing CYP2C9*3 allele carrier polymorphism at 25 to 32 mg by LC/MS/MS analysis
[28] = Cmax in human plasma expressing CYP2C9*3 allele carrier polymorphism at 25 to 32 mg by LC/MS/MS analysis
[29] = Half life in men plasma at 25 to 32 mg by LC/MS/MS analysis; conditions: male, human
[30] = Tmax in human plasma expressing CYP2C8*1/*1 polymorphism at 25 to 32 mg by LC/MS/MS analysis
[31] = AUC in human plasma expressing CYP2C8*4 allele carrier polymorphism at 25 to 32 mg by LC/MS/MS analysis
[32] = Half life in human plasma expressing CYP2C9*3 allele carrier polymorphism at 25 to 32 mg by LC/MS/MS analysis
[33] = AUC in human plasma expressing CYP2C9*2 allele carrier polymorphism at 25 to 32 mg by LC/MS/MS analysis
[34] = AUC in human plasma expressing CYP2C8*1/*1 polymorphism at 25 to 32 mg by LC/MS/MS analysis
[35] = Tmax in human plasma expressing CYP2C8*4 allele carrier polymorphism at 25 to 32 mg by LC/MS/MS analysis
[36] = AUC in women plasma at 25 to 32 mg by LC/MS/MS analysis; conditions: female, human
[37] = Cmax in men plasma at 25 to 32 mg by LC/MS/MS analysis; conditions: male, human
[38] = AUC in human plasma expressing CYP2C8*3 allele carrier polymorphism at 25 to 32 mg by LC/MS/MS analysis
[39] = Tmax in men plasma at 25 to 32 mg by LC/MS/MS analysis; conditions: male, human
[40] = Clearance in human plasma expressing CYP2C9*1/*1 polymorphism at 25 to 32 mg by LC/MS/MS analysis
[41] = Tmax in women plasma at 25 to 32 mg by LC/MS/MS analysis; conditions: female, human
[42] = Half life in women plasma at 25 to 32 mg by LC/MS/MS analysis; conditions: female, human
[43] = Cmax in human plasma expressing CYP2C8*2 allele carrier polymorphism at 25 to 32 mg by LC/MS/MS analysis
[44] = Clearance in human plasma expressing CYP2C8*2 allele carrier polymorphism at 25 to 32 mg by LC/MS/MS analysis
[45] = Tmax in human plasma expressing CYP2C9*1/*1 polymorphism at 25 to 32 mg by LC/MS/MS analysis
[46] = Half life in human plasma expressing CYP2C9*3 allele carrier polymorphism treated with losartan at 50 mg by LC/MS/MS analysis
[47] = Half life in human plasma expressing CYP2C8*1/*1 polymorphism treated with losartan at 50 mg by LC/MS/MS analysis
[48] = Tmax in human plasma expressing CYP2C8*4 allele carrier polymorphism treated with losartan at 50 mg by LC/MS/MS analysis
[49] = AUC in human plasma expressing CYP2C8*1/*1 polymorphism treated with losartan at 50 mg by LC/MS/MS analysis
[50] = AUC in men plasma treated with losartan at 50 mg by LC/MS/MS analysis; conditions: male, human
[51] = Half life in women plasma treated with losartan at 50 mg by LC/MS/MS analysis; conditions: female, human
[52] = AUC in human plasma expressing CYP2C8*4 allele carrier polymorphism treated with losartan at 50 mg by LC/MS/MS analysis
[53] = Half life in human plasma expressing CYP2C9*1/*1 polymorphism treated with losartan at 50 mg by LC/MS/MS analysis
[54] = Half life in human plasma expressing CYP2C8*4 allele carrier polymorphism treated with losartan at 50 mg by LC/MS/MS analysis
[55] = Cmax in human plasma expressing CYP2C9*1/*1 polymorphism treated with losartan at 50 mg by LC/MS/MS analysis; set-up: dose 50 mg
[56] = AUC in human plasma expressing CYP2C9*3 allele carrier polymorphism treated with losartan at 50 mg by LC/MS/MS analysis
[57] = Cmax in human plasma expressing CYP2C9*2 allele carrier polymorphism treated with losartan at 50 mg by LC/MS/MS analysis; set-up: dose 50 mg
[58] = Tmax in human plasma expressing CYP2C9*2 allele carrier polymorphism treated with losartan at 50 mg by LC/MS/MS analysis
[59] = AUC in human plasma expressing CYP2C9*1/*1 polymorphism treated with losartan at 50 mg by LC/MS/MS analysis
[60] = Cmax in human plasma expressing CYP2C8*1/*1 polymorphism treated with losartan at 50 mg by LC/MS/MS analysis; set-up: dose 50 mg
[61] = Half life in men plasma treated with losartan at 50 mg by LC/MS/MS analysis; conditions: male, human
[62] = AUC in women plasma treated with losartan at 50 mg by LC/MS/MS analysis; conditions: female, human
[63] = Half life in human plasma expressing CYP2C9*2 allele carrier polymorphism treated with losartan at 50 mg by LC/MS/MS analysis
[64] = Cmax in women plasma treated with losartan at 50 mg by LC/MS/MS analysis; set-up: dose 50 mg; conditions: female, human
[65] = AUC in human plasma expressing CYP2C9*2 allele carrier polymorphism treated with losartan at 50 mg by LC/MS/MS analysis
[66] = AUC in human plasma expressing CYP2C8*3 allele carrier polymorphism treated with losartan at 50 mg by LC/MS/MS analysis
[67] = Cmax in human plasma expressing CYP2C8*3 allele carrier polymorphism treated with losartan at 50 mg by LC/MS/MS analysis; set-up: dose 50 mg
[68] = Tmax in women plasma treated with losartan at 50 mg by LC/MS/MS analysis; conditions: female, human
[69] = Half life in human plasma expressing CYP2C8*3 allele carrier polymorphism treated with losartan at 50 mg by LC/MS/MS analysis
[70] = Tmax in men plasma treated with losartan at 50 mg by LC/MS/MS analysis; conditions: male, human
[71] = Tmax in human plasma expressing CYP2C8*1/*1 polymorphism treated with losartan at 50 mg by LC/MS/MS analysis
[72] = Cmax in men plasma treated with losartan at 50 mg by LC/MS/MS analysis; set-up: dose 50 mg; conditions: male, human
[73] = Tmax in human plasma expressing CYP2C8*3 allele carrier polymorphism treated with losartan at 50 mg by LC/MS/MS analysis
[74] = Tmax in human plasma expressing CYP2C9*1/*1 polymorphism treated with losartan at 50 mg by LC/MS/MS analysis
[75] = Tmax in human plasma expressing CYP2C9*3 allele carrier polymorphism treated with losartan at 50 mg by LC/MS/MS analysis
[76] = Cmax in human plasma expressing CYP2C8*4 allele carrier polymorphism treated with losartan at 50 mg by LC/MS/MS analysis; set-up: dose 50 mg
[77] = Cmax in human plasma expressing CYP2C9*3 allele carrier polymorphism treated with losartan at 50 mg by LC/MS/MS analysis; set-up: dose 50 mg

half-life [1]: 12 h
Cmax [2]: 214 ng/mL
clearance [3]: 2.5 mL/min/kg
clearance [4]: 2.17 mL/min/kg
Cmax [5]: 217 ng/mL
half-life [6]: 10.7 h
Tmax [7]: 4.8 h
Cmax [8]: 260 ng/mL
Cmax [9]: 242 ng/mL
Tmax [10]: 3.4 h
Tmax [11]: 5 h
AUC [12]: 3260 ng·h/mL
half-life [13]: 12.8 h
Tmax [14]: 5.1 h
AUC [15]: 3580 ng·h/mL
clearance [16]: 2.33 mL/min/kg
clearance [17]: 2.5 mL/min/kg
clearance [18]: 2.67 mL/min/kg
half-life [19]: 10.9 h
half-life [20]: 11.2 h
half-life [21]: 11.7 h
Cmax [22]: 258 ng/mL
Cmax [23]: 287 ng/mL
clearance [24]: 2.5 mL/min/kg
clearance [25]: 2.5 mL/min/kg
AUC [26]: 3590 ng·h/mL
AUC [27]: 3630 ng·h/mL
Cmax [28]: 230 ng/mL
half-life [29]: 11.3 h
Tmax [30]: 5.2 h
AUC [31]: 4130 ng·h/mL
half-life [32]: 12.1 h
AUC [33]: 3450 ng·h/mL
AUC [34]: 3510 ng·h/mL
Tmax [35]: 4.1 h
AUC [36]: 3810 ng·h/mL
Cmax [37]: 216 ng/mL
AUC [38]: 3450 ng·h/mL
Tmax [39]: 5.1 h
clearance [40]: 2.33 mL/min/kg
Tmax [41]: 4.9 h
half-life [42]: 12.1 h
Cmax [43]: 289 ng/mL
clearance [44]: 2.5 mL/min/kg
Tmax [45]: 5.1 h
Compound: CCOc1nc2cccc(C(=O)O)c2n1Cc1ccc(-c2ccccc2-c2nnn[nH]2)cc1

half-life [46]: 5.7 h
half-life [47]: 4.8 h
Tmax [48]: 2.8 h
AUC [49]: 2330 ng·h/mL
AUC [50]: 1810 ng·h/mL
half-life [51]: 4.8 h
AUC [52]: 2270 ng·h/mL
half-life [53]: 4.6 h
half-life [54]: 4.6 h
Cmax [55]: 292 ng/mL
AUC [56]: 2860 ng·h/mL
Cmax [57]: 224 ng/mL
Tmax [58]: 3.5 h
AUC [59]: 2140 ng·h/mL
Cmax [60]: 249 ng/mL
half-life [61]: 4.9 h
AUC [62]: 2580 ng·h/mL
half-life [63]: 4.9 h
Cmax [64]: 301 ng/mL
AUC [65]: 1770 ng·h/mL
AUC [66]: 1500 ng·h/mL
Cmax [67]: 196 ng/mL
Tmax [68]: 3.7 h
half-life [69]: 5.1 h
Tmax [70]: 3.7 h
Tmax [71]: 3.9 h
Cmax [72]: 209 ng/mL
Tmax [73]: 3.7 h
Tmax [74]: 3.7 h
Tmax [75]: 4.3 h
Cmax [76]: 382 ng/mL
Cmax [77]: 154 ng/mL
Compound: CCCCc1nc(Cl)c(C(=O)O)n1Cc1ccc(-c2ccccc2-c2nn[nH]n2)cc1 [CARBOXYLIC ACID METABOLITE]
